Consider 17 molecules from US9040527B2, “Pyrimidinediamine kinase inhibitors” (Rigel Pharmaceuticals, Inc., priority 2008, dated 2015).

Assay [1] deals with T1, PLK1 (Homo sapiens, UniProt P53350). The assay is described as follows: Cellular PLK1 assay in K562 cells overexpressing CDC25C. It is filed as cell-based. Also on record: endogenous in cells; host or cells: K562 (human chronic myelogenous leukemia) overexpressing CDC25C, nocodazole-arrested. As to conditions: nocodazole arrested, cdc25c p-Ser198 readout. In short, it runs like this:
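K562 cells overexpressing CDC25C were arrested with 333 nM nocodazole for 18 h at 37 °C, then exposed to compound at 8 points from 10 μM to 0.005 μM in duplicate for 120 min. After fixation and permeabilization, cells were stained for cdc25c pSer198 with a PE secondary and read by flow cytometry, 10,000 cells per well.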

The target in assay [2] is T1, PLK1. The assay is described as follows: In vitro PLK1 ELISA assay (biochemical). Also on record: purchased Cell Signalling 7728. An outline of the steps: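 Commercial PLK1 phosphorylates neutravidin-captured biotinylated CHK2 peptide for 45 min at room temperature in HEPES pH 7.2 with Mg2+/Mn2+/DTT, compounds at 10 μM to 0.005 μM. Phospho-CHK2(T68) antibody plus HRP secondary gives chemiluminescent read-out used for IC50.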
For orientation: ELISA stands for enzyme-linked immunosorbent assay.

The mark [3] stands for this setting: ELISA, CHK2-derived peptide substrate, read-out: PLK1 IC50 (μM) biochemical assay.
Setting [4] is: read-out: IC50 in biochemical in vitro PLK1 ELISA assay (less than 10 μM).

T1 sequence (P53350 whole entry): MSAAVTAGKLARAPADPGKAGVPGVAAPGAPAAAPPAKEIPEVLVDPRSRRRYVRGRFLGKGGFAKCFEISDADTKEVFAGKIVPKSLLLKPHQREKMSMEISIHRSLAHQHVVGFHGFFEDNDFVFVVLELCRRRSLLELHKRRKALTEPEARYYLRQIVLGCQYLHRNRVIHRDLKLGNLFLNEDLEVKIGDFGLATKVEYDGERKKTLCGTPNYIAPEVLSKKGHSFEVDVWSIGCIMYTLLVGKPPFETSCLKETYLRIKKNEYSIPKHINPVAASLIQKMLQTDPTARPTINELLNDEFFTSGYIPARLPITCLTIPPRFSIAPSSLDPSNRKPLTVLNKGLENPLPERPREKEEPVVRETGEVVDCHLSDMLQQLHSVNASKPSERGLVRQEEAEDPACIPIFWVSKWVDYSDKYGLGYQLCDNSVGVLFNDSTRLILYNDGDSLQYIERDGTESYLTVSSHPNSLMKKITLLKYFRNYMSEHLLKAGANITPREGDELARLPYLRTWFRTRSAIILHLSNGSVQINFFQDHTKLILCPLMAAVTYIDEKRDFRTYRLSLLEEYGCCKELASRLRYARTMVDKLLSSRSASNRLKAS

Usually IC50 stands for the midpoint of a concentration-inhibition curve. Take `CN1CCN(c2cccc(Nc3ncc(C(F)(F)F)c(Nc4ccc5c(n4)NCCO5)n3)c2)CC1` [compound 55, N4-(3,4-dihydro-2H-pyrido[3,2-b][1,4]oxazin-6-yl)-N2-(3-(4-methyl-piperazin-1-yl)phenyl)-5-(trifluoro-methyl)pyrimidine-2,4-diamine]: the concentration for half-maximal inhibition (IC50) in assay [1] was less than 0.5 µM; in assay [2] (setting [3]), less than 0.5 µM; in assay [2] (read-out: IC50 in biochemical ELISA assay (less than 0.01 μM)) it was less than 0.01 µM; in assay [2] (setting [4]), less than 10 µM.
Regarding `COc1cnc(Nc2cccc(N3CCN(C)CC3)c2)nc1Nc1ccc2c(n1)NC(=O)CO2` [compound 56, 6-(5-methoxy-2-(3-(4-methylpiperazin-1-yl)phenylamino)pyrimidin-4-ylamino)-2H-pyrido[3,2-b][1,4]oxazin-3(4H)-one], the IC50 in assay [1] is no less than 10 µM; in assay [2] (setting [3]), less than 0.5 µM; in assay [2] (setting [4]), less than 10 µM.
In the case of `Cc1cc(Nc2ncc(C)c(Nc3ccc4c(n3)N(C)C(=O)CO4)n2)ccc1N1CCN(C)CC1` [compound 95, 4-methyl-6-(5-methyl-2-(3-methyl-4-(4-methylpiperazin-1-yl)phenylamino)pyrimidin-4-ylamino)-2H-pyrido[3,2-b][1,4]oxazin-3(4H)-one], the IC50 in assay [1] was no less than 10 µM; in assay [2] (setting [3]), 0.5 to 5 µM; in assay [2] (setting [4]) it was less than 10 µM.
In the case of `Cc1cc(Nc2ncc(C)c(Nc3ccc4c(n3)NC(=O)C(C)(C)O4)n2)ccc1N1CCN(C)CC1` [compound 96, 2,2-dimethyl-6-(5-methyl-2-(3-methyl-4-(4-methylpiperazin-1-yl)phenylamino)pyrimidin-4-ylamino)-2H-pyrido[3,2-b][1,4]oxazin-3(4H)-one], the half-maximal inhibitory concentration (IC50) in assay [1] was no less than 10 µM; in assay [2] (setting [3]) it was 5 to 10 µM; in assay [2] (setting [4]), less than 10 µM.
In the same order, the values of `CCCN1C(=O)COc2ccc(Nc3nc(Nc4ccc(N5CCN(C)CC5)c(C)c4)ncc3C)nc21` [compound 97, 6-(5-methyl-2-(3-methyl-4-(4-methylpiperazin-1-yl)phenylamino)pyrimidin-4-ylamino)-4-propyl-2H-pyrido[3,2-b][1,4]oxazin-3(4H)-one] are 0.5 to 5 µM, less than 0.5 µM and less than 10 µM.
`CCN1C(=O)COc2ccc(Nc3nc(Nc4ccc(N5CCN(C)CC5)nc4)ncc3C)nc21` [compound 101, 4-ethyl-6-(5-methyl-2-(6-(4-methylpiperazin-1-yl)pyridin-3-ylamino)pyrimidin-4-ylamino)-2H-pyrido[3,2-b][1,4]oxazin-3(4H)-one]: the figures for the IC50 in assay [1], in assay [2] (setting [3]) and in assay [2] (setting [4]) were 0.5 to 5 µM, less than 0.5 µM and less than 10 µM, respectively.
As for `CCCN1C(=O)COc2ccc(Nc3nc(Nc4ccc(N5CC6CC5CN6C)c(C)c4)ncc3C)nc21` (stereo not drawn) [compound 107, 6-(5-methyl-2-(3-methyl-4-(5-methyl-2,5-diazabicyclo[2.2.1]heptan-2-yl)phenylamino)pyrimidin-4-ylamino)-4-propyl-2H-pyrido[3,2-b][1,4]oxazin-3(4H)-one], the figures for the concentration for half-maximal inhibition (IC50) in assay [1], in assay [2] (setting [3]) and in assay [2] (setting [4]) were 0.5 to 5 µM, less than 0.5 µM and less than 10 µM, respectively.
With `CN1CCN(c2cccc(Nc3ncc(F)c(Nc4ccc5c(n4)N(CC4CC4)C(=O)CO5)n3)c2)CC1` [compound 108, 4-(cyclopropylmethyl)-6-(5-fluoro-2-(3-(4-methylpiperazin-1-yl)phenylamino)pyrimidin-4-ylamino)-2H-pyrido[3,2-b][1,4]oxazin-3(4H)-one], the figures for the concentration for half-maximal inhibition (IC50) in assay [1], in assay [2] (setting [3]) and in assay [2] (setting [4]) were 0.5 to 5 µM, less than 0.5 µM and less than 10 µM, respectively.
In the same order, the values of `CN1CCN(c2cccc(Nc3ncc(F)c(Nc4ccc5c(n4)N(CC4CCC4)C(=O)CO5)n3)c2)CC1` [compound 109, 4-(cyclobutylmethyl)-6-(5-fluoro-2-(3-(4-methylpiperazin-1-yl)phenylamino)pyrimidin-4-ylamino)-2H-pyrido[3,2-b][1,4]oxazin-3(4H)-one] are 0.5 to 5 µM, less than 0.5 µM and less than 10 µM.
`CN1CCN(c2cccc(Nc3ncc(F)c(Nc4ccc5c(n4)N(CC4CCCCC4)C(=O)CO5)n3)c2)CC1` [compound 110, 4-(cyclohexylmethyl)-6-(5-fluoro-2-(3-(4-methylpiperazin-1-yl)phenylamino)pyrimidin-4-ylamino)-2H-pyrido[3,2-b][1,4]oxazin-3(4H)-one]: the 50% inhibitory concentration (IC50) in assay [1] was no less than 10 µM; in assay [2] (setting [3]), 5 to 10 µM; in assay [2] (setting [4]) it was less than 10 µM.
`Cc1cc(Nc2ncc(F)c(Nc3ccc4c(n3)N(CC3CCC3)C(=O)CO4)n2)ccc1N1CCN(C)CC1` [compound 112, 4-(cyclobutylmethyl)-6-(5-fluoro-2-(3-methyl-4-(4-methylpiperazin-1-yl)phenylamino)pyrimidin-4-ylamino)-2H-pyrido[3,2-b][1,4]oxazin-3(4H)-one]: the concentration for half-maximal inhibition (IC50) in assay [1] and in assay [2] (setting [3]) was no less than 10 µM throughout.
With `Cc1cc(Nc2ncc(F)c(Nc3ccc4c(n3)N(CC3CCCCC3)C(=O)CO4)n2)ccc1N1CCN(C)CC1` [compound 113, 4-(cyclohexylmethyl)-6-(5-fluoro-2-(3-methyl-4-(4-methylpiperazin-1-yl)phenylamino)pyrimidin-4-ylamino)-2H-pyrido[3,2-b][1,4]oxazin-3(4H)-one], the IC50 in assay [1] and in assay [2] (setting [3]) was no less than 10 µM in each case.
`Cc1cc(Nc2ncc(C)c(Nc3ccc4c(n3)N(CC3CC3)C(=O)CO4)n2)ccc1N1CCN(C)CC1` [compound 114, 4-(cyclopropylmethyl)-6-(5-methyl-2-(3-methyl-4-(4-methyl-piperazin-1-yl)phenylamino)pyrimidin-4-ylamino)-2H-pyrido[3,2-b][1,4]oxazin-3(4H)-one]: the half-inhibitory concentration (IC50) in assay [1] was no less than 10 µM; in assay [2] (setting [3]), 0.5 to 5 µM; in assay [2] (setting [4]), less than 10 µM.
Consider `Cc1cc(Nc2ncc(C)c(Nc3ccc4c(n3)N(CC3CCC3)C(=O)CO4)n2)ccc1N1CCN(C)CC1` [compound 115, 4-(cyclobutylmethyl)-6-(5-methyl-2-(3-methyl-4-(4-methylpiperazin-1-yl)phenylamino)pyrimidin-4-ylamino)-2H-pyrido[3,2-b][1,4]oxazin-3(4H)-one], for which the half-inhibitory concentration (IC50) is no less than 10 µM in assay [1], 0.5 to 5 µM in assay [2] (setting [3]) and less than 10 µM in assay [2] (setting [4]).
In the same order, the values of `Cc1cnc(Nc2cccc(N3CCN(C)CC3)c2)nc1Nc1ccc2c(n1)N(C1CCCC1)C(=O)CO2` [compound 116, 4-cyclopentyl-6-(5-methyl-2-(3-(4-methylpiperazin-1-yl)phenylamino)pyrimidin-4-ylamino)-2H-pyrido[3,2-b][1,4]oxazin-3(4H)-one] are no less than 10 µM, 0.5 to 5 µM and less than 10 µM.
As to `Cc1cc(Nc2ncc(C)c(Nc3ccc4c(n3)N(C3CCCC3)C(=O)CO4)n2)ccc1N1CCN(C)CC1` [compound 117, 4-cyclopentyl-6-(5-methyl-2-(3-methyl-4-(4-methylpiperazin-1-yl)phenylamino)pyrimidin-4-ylamino)-2H-pyrido[3,2-b][1,4]oxazin-3(4H)-one], the IC50 in assay [1] and in assay [2] (setting [3]) was no less than 10 µM throughout.
As to `Cc1cc(Nc2ncc(F)c(Nc3ccc4c(n3)N(Cc3ccccc3)C(=O)CO4)n2)ccc1N1CCN(C)CC1` [compound 118, 4-benzyl-6-(5-fluoro-2-(3-methyl-4-(4-methylpiperazin-1-yl)phenylamino)pyrimidin-4-ylamino)-2H-pyrido[3,2-b][1,4]oxazin-3(4H)-one], the figures for the IC50 in assay [1] and in assay [2] (setting [3]) were 0.5 to 5 µM and no less than 10 µM, respectively.
